Consider four compounds from patent US5220008A, “Oligosaccharide inhibitors for influenza virus” (priority 1991, dated 1993).

For the assay, the system named is influenza virus (A/Aichi/2/68). Briefly: Inhibition of Influenza Virus Adsorbtion to Erythrocytes (hemagglutination of resialylated human erythrocytes). The following applies: relative to Me αDNeuAc = 1.0 (Table 8).

Excerpt: The heptasaccharides can be evaluated as inhibitors of the influenza virus hemagglutination of the resialylated human erythrocytes.
^a Inhibition of influenza virus (A/Aichi/2/68) to resialylated

Turning to `COC(=O)CCCCCOC1OC(CO)C(O)C(OC2OC(CO)C(OC3OC(COC4(C(=O)O)CC(O)C(NC(C)=O)C(C(O)C(O)CO)O4)C(O)C(O)C3O)C(O)C2NC(C)=O)C1OC1OC(CO)C(OC2OC(COC3(C(=O)O)CC(O)C(NC(C)=O)C(C(O)C(O)CO)O3)C(O)C(O)C2O)C(O)C1NC(C)=O` [Example 27, 5-(Methoxycarbonyl)pentyl 2,3-di-O-{5-acetamido-3,5-dideoxy-D-glycero-D-galacto-2-nanulopyranosylonic acid(2→6)-β-D-galactopyranosyl(1→4)-2-acetamido-2-deoxy-β-D-glucopyranosyl}-β-D-galactopyranoside], the “Relative Potency” value is given as 7.2. Next, `COC(=O)CCCCCOC1OC(CO)C(OC2OC(CO)C(OC3OC(COC4(C(=O)O)CC(O)C(NC(C)=O)C(C(O)C(O)CO)O4)C(O)C(O)C3O)C(O)C2NC(C)=O)C(O)C1OC1OC(CO)C(OC2OC(COC3(C(=O)O)CC(O)C(NC(C)=O)C(C(O)C(O)CO)O3)C(O)C(O)C2O)C(O)C1NC(C)=O` [Example 28, 5-(Methoxycarbonyl)pentyl 2,4-di-O-{5-acetamido-3,5-dideoxy-D-glycero-D-galacto-2-nanulopyranosylonic acid(2→6)-β-D-galactopyranosyl(1→4)-2--acetamido-2-deoxy-β-D-glucopyranosyl}-β-D-galactopyranoside]: 1.5; `COC(=O)CCCCCOC1OC(CO)C(OC2OC(CO)C(OC3OC(CO)C(O)C(O)C3O)C(O)C2NC(C)=O)C(O)C1OC1OC(CO)C(OC2OC(COC3(C(=O)O)CC(O)C(NC(C)=O)C(C(O)C(O)CO)O3)C(O)C(O)C2O)C(O)C1NC(C)=O` [Example 28A, 5-(methoxycarbonyl)pentyl 2-O-[5-acetamido-3,5-dideoxy-D-glycero-D-galactononulopyranosylonic acid (2→6)-β-D-galactopyranosyl-(1→4)-2-acetamido-2-deoxy-D-glycopyranosyl]-4-O-[β-D-galactopyranosyl-(1→4)-2-acetamido-2-deoxy-D-glucopyranosyl]-β-D-galactopyranoside]: 1.9. Then `COC(=O)CCCCCOC1OC(COC2OC(CO)C(OC3OC(COC4(C(=O)O)CC(O)C(NC(C)=O)C(C(O)C(O)CO)O4)C(O)C(O)C3O)C(O)C2NC(C)=O)C(O)C(OC2OC(CO)C(OC3OC(COC4(C(=O)O)CC(O)C(NC(C)=O)C(C(O)C(O)CO)O4)C(O)C(O)C3O)C(O)C2NC(C)=O)C1O` [Example 30, 5-(Methoxycarbonyl)pentyl 3,6-di-O-{5-acetamido-3,5-dideoxy-D-glycero-D-galacto-2-nanulopyranosylonic acid(2→6)-β-galactopyranosyl(1→4)-2-acetamido-2-deoxy-β-D-glucopyranosyl}-β-D-galactopyranoside], with 8.4.
